This assay has as its system nude mice, LOX melanoma ip, survival T/C. Briefly: NCI In Vivo Anticancer Drug Screen. Data for tumor model Human Amelanotic Melanoma (LOX) (intraperitoneal) in NU/NU BALB/C (nude) mice. The following applies: endpoint: median survival time, higher = longer survival. Here is the method:
The antitumor activity of compounds was measured in mice bearing transplantable tumors. Survival or tumor size were measured and the results are expressed as the measurement made in the treated group (T) divided by the measurement made in the vehicle treated control group (C). The tumor model used in this assay is Human Amelanotic Melanoma (LOX) (intraperitoneal) in NU/NU BALB/C (nude) mice

[1] abbreviates: dose: 25.0 mg/kg/injection, schedule: Q04DX003 (ip), vehicle: suspension in saline.

“And” between values parts separate entries of the source, which are not always exact repeats. Equal entries are not always repeated. Inconclusive results and toxic doses are left out.

On to `CNC(=O)N(C)N=NCCCl`, for which the T/C (dose: 100.0 mg/kg/injection, schedule: Q04DX003 (ip), vehicle: saline with Tween-80) is 201 % of control; the T/C (dose: 200.0 mg/kg/injection, schedule: Q04DX003 (ip), vehicle: saline with Tween-80) was 309 % of control; the T/C (dose: 400.0 mg/kg/injection, schedule: Q04DX003 (ip), vehicle: saline with Tween-80) was 309 % of control; the T/C (dose: 800.0 mg/kg/injection, schedule: Q04DX003 (ip), vehicle: saline with Tween-80) is 309 % of control.
For the molecule `COc1cccc2c1C(=O)c1c(O)c3c(c(O)c1C2=O)C[C@](O)(C(=O)CO)CC3OC1CC(N)C(OC2CCCCO2)C(C)O1` (stereo not given in full), the T/C is, setting by setting: (dose: 0.94 mg/kg/injection, schedule: Q04DX003 (ip), vehicle: water) 122 % of control; (dose: 7.5 mg/kg/injection, schedule: Q04DX003 (ip), vehicle: water) 160 % of control; (dose: 15.0 mg/kg/injection, schedule: Q04DX003 (ip), vehicle: water) 150 % of control.
On to `O=C(/C=C/c1ccccc1)c1ccccc(=O)c1O`, for which the T/C (dose: 6.85 mg/kg/injection, schedule: Q04DX003 (ip), vehicle: Klucel (hydroxypropylcellulose) (HPC)) was 100 % of control; the T/C (dose: 13.7 mg/kg/injection, schedule: Q04DX003 (ip), vehicle: Klucel (hydroxypropylcellulose) (HPC)) was 97 % of control; the T/C (dose: 27.5 mg/kg/injection, schedule: Q04DX003 (ip), vehicle: Klucel (hydroxypropylcellulose) (HPC)) is 104 % of control; the T/C (dose: 55.0 mg/kg/injection, schedule: Q04DX003 (ip), vehicle: Klucel (hydroxypropylcellulose) (HPC)) is 108 % of control; the T/C (dose: 110.0 mg/kg/injection, schedule: Q04DX003 (ip), vehicle: Klucel (hydroxypropylcellulose) (HPC)) was 94 % of control.
Take `NNC(=O)c1ccncc1`: the T/C (dose: 18.75 mg/kg/injection, schedule: Q04DX003 (ip), vehicle: saline) was 110 % of control and the T/C (dose: 37.5 mg/kg/injection, schedule: Q04DX003 (ip), vehicle: saline) was 109 % of control.
`CC(=O)O[C@H]1C(=O)[C@@]2(C)C(C(OC(=O)c3ccccc3)[C@]3(O)C[C@H](OC(=O)C(OC(=O)CCCC(=O)NCCCN(C)C)C(NC(=O)c4ccccc4)c4ccccc4)C(C)=C1C3(C)C)C1(OC(C)=O)COC1C[C@@H]2O` (stereo not given in full): the T/C runs as follows: (dose: 2.5 mg/kg/injection, schedule: Q01DX009 (ip), vehicle: water) 155 % of control; (dose: 5.0 mg/kg/injection, schedule: Q01DX009 (ip), vehicle: water) 156 % of control; (dose: 10.0 mg/kg/injection, schedule: Q01DX009 (ip), vehicle: water) 157 % of control and 225 % of control; (dose: 20.0 mg/kg/injection, schedule: Q01DX009 (ip), vehicle: water) 205 % of control and 310 % of control.
Take `CC1=C(C(N)=O)C(c2ccccc2)NC(=S)N1` (stereo not given): the T/C is 96 % of control (dose: 25.0 mg/kg/injection, schedule: Q04DX003 (ip), vehicle: Klucel (hydroxypropylcellulose) (HPC)); 98 % of control (dose: 50.0 mg/kg/injection, schedule: Q04DX003 (ip), vehicle: Klucel (hydroxypropylcellulose) (HPC)); 97 % of control (dose: 100.0 mg/kg/injection, schedule: Q04DX003 (ip), vehicle: Klucel (hydroxypropylcellulose) (HPC)); 95 % of control (dose: 200.0 mg/kg/injection, schedule: Q04DX003 (ip), vehicle: Klucel (hydroxypropylcellulose) (HPC)); 86 % of control (dose: 400.0 mg/kg/injection, schedule: Q04DX003 (ip), vehicle: Klucel (hydroxypropylcellulose) (HPC)).
Turning to `O=CC(CO)CC(C=O)n1cnc2c(=O)[nH]cnc21` (stereo not given), the T/C by setting is: (dose: 50.0 mg/kg/injection, schedule: Q04DX003 (ip), vehicle: saline) 109 % of control; (dose: 100.0 mg/kg/injection, schedule: Q04DX003 (ip), vehicle: saline) 102 % of control; (dose: 200.0 mg/kg/injection, schedule: Q04DX003 (ip), vehicle: saline) 103 % of control; (dose: 400.0 mg/kg/injection, schedule: Q04DX003 (ip), vehicle: saline) 113 % of control; (dose: 800.0 mg/kg/injection, schedule: Q04DX003 (ip), vehicle: saline) 100 % of control.
`N#Cc1c(N)[nH]c2ccc(Sc3ccccc3)cc12`: the T/C is 99 % of control (dose: 15.0 mg/kg/injection, schedule: Q04DX003 (ip), vehicle: saline with Tween-80); 89 % of control (dose: 30.0 mg/kg/injection, schedule: Q04DX003 (ip), vehicle: saline with Tween-80); 94 % of control (dose: 60.0 mg/kg/injection, schedule: Q04DX003 (ip), vehicle: saline with Tween-80); 104 % of control (dose: 120.0 mg/kg/injection, schedule: Q04DX003 (ip), vehicle: saline with Tween-80); 124 % of control (dose: 240.0 mg/kg/injection, schedule: Q04DX003 (ip), vehicle: saline with Tween-80).
For `COC(=O)C1C2CCCN2OC1(C)CO` (stereo not given), the T/C by setting is: (dose: 30.0 mg/kg/injection, schedule: Q04DX003 (ip), vehicle: saline) 103 % of control; (dose: 60.0 mg/kg/injection, schedule: Q04DX003 (ip), vehicle: saline) 97 % of control; (dose: 62.5 mg/kg/injection, schedule: Q04DX003 (ip), vehicle: saline with Tween-80) 111 % of control; (dose: 120.0 mg/kg/injection, schedule: Q04DX003 (ip), vehicle: saline) 99 % of control; (dose: 240.0 mg/kg/injection, schedule: Q04DX003 (ip), vehicle: saline) 89 % of control; (dose: 250.0 mg/kg/injection, schedule: Q04DX003 (ip), vehicle: saline with Tween-80) 101 % of control. Also, the T/C runs as follows: (dose: 500.0 mg/kg/injection, schedule: Q04DX003 (ip), vehicle: saline with Tween-80) 100 % of control; (dose: 1000.0 mg/kg/injection, schedule: Q04DX003 (ip), vehicle: saline with Tween-80) 98 % of control.
As for `CNC(=O)OCc1nc(SC)n(C)c1COC(=O)NC`, the T/C (dose: 51.2 mg/kg/injection, schedule: Q04DX003 (ip), vehicle: water) is 179 % of control; the T/C (dose: 57.5 mg/kg/injection, schedule: Q04DX003 (ip), vehicle: saline) is 156 % of control; the T/C (dose: 76.7 mg/kg/injection, schedule: Q04DX003 (ip), vehicle: water) is 229 % of control; the T/C (dose: 115.0 mg/kg/injection, schedule: Q04DX003 (ip), vehicle: saline) was 234 % of control; the T/C (dose: 115.0 mg/kg/injection, schedule: Q04DX003 (ip), vehicle: water) is 354 % of control.
Consider `Oc1ccc(/C=N/Nc2nnc(N/N=C/c3ccc(O)cc3O)c3ccccc23)c(O)c1`, for which the T/C reads like this: (dose: 12.5 mg/kg/injection, schedule: Q04DX003 (ip), vehicle: suspension in saline) 120 % of control; under setting [1], 119 % of control.
Regarding `N/C(=N/N=C/c1cc(Br)cc(Br)c1O)NO`, the T/C under setting [1] is 98 % of control; the T/C (dose: 50.0 mg/kg/injection, schedule: Q04DX003 (ip), vehicle: suspension in saline) is 96 % of control; the T/C (dose: 100.0 mg/kg/injection, schedule: Q04DX003 (ip), vehicle: suspension in saline) is 86 % of control.
Regarding `CC[C@@H](C)[C@H]([C@H](CC(=O)N1CCC[C@@H]1[C@@H](OC)[C@H](C)C(=O)N[C@H](Cc1ccccc1)c1nccs1)OC)N(C)C(=O)[C@H](NC(=O)[C@@H](C(C)C)N(C)C)C(C)C`, the T/C (dose: 3.0 micrograms/kg/injection, schedule: Q04DX003 (ip), vehicle: saline + alcohol) is 109 % of control; the T/C (dose: 3.25 micrograms/kg/injection, schedule: Q04DX003 (ip), vehicle: saline + alcohol) was 170 % of control; the T/C (dose: 6.0 micrograms/kg/injection, schedule: Q04DX003 (ip), vehicle: saline + alcohol) is 113 % of control; the T/C (dose: 6.5 micrograms/kg/injection, schedule: Q04DX003 (ip), vehicle: saline + alcohol) was 206 % of control; the T/C (dose: 9.0 micrograms/kg/injection, schedule: Q04DX003 (ip), vehicle: saline + alcohol) was 115 % of control; the T/C (dose: 13.0 micrograms/kg/injection, schedule: Q04DX003 (ip), vehicle: saline + alcohol) is 301 % of control. Besides, the T/C is, setting by setting: (dose: 15.0 micrograms/kg/injection, schedule: Q04DX003 (ip), vehicle: saline + alcohol) 192 % of control; (dose: 26.0 micrograms/kg/injection, schedule: Q04DX003 (ip), vehicle: saline + alcohol) 181 % of control and 301 % of control; (dose: 43.0 micrograms/kg/injection, schedule: Q04DX003 (ip), vehicle: saline + alcohol) 340 % of control.

For the origin of these results see PubChem BioAssay AID280 (DTP/NCI, 2004).
